Reference: patent US20250009730A1 (priority 2021, published 2025)
Structures can show the parent of a compound that is named as a salt. Where two headings read alike, the source gives them in different places.

What was measured:
[1] = molecular target: T1, NR1/NR2B ionotropic receptors encoded by the human GRIN1/GRIN2B genes, expressed in HEK293 cells (Homo sapiens, UniProt Q05586+Q13224); experiment: Syncropatch automated patch clamp on NR1/NR2B receptors in HEK293 cells, agonist mode; assay type: cell-based; conditions: for EC50 / NR1/NR2B PCA agonist EMAX: plus 50 μM glycine; for NR1/NR2B PCA agonist EMAX: relative to current produced by 100 μM glutamate (EMAX set as 100%)
T1 sequence (Q13224 27-1484, other chains not shown): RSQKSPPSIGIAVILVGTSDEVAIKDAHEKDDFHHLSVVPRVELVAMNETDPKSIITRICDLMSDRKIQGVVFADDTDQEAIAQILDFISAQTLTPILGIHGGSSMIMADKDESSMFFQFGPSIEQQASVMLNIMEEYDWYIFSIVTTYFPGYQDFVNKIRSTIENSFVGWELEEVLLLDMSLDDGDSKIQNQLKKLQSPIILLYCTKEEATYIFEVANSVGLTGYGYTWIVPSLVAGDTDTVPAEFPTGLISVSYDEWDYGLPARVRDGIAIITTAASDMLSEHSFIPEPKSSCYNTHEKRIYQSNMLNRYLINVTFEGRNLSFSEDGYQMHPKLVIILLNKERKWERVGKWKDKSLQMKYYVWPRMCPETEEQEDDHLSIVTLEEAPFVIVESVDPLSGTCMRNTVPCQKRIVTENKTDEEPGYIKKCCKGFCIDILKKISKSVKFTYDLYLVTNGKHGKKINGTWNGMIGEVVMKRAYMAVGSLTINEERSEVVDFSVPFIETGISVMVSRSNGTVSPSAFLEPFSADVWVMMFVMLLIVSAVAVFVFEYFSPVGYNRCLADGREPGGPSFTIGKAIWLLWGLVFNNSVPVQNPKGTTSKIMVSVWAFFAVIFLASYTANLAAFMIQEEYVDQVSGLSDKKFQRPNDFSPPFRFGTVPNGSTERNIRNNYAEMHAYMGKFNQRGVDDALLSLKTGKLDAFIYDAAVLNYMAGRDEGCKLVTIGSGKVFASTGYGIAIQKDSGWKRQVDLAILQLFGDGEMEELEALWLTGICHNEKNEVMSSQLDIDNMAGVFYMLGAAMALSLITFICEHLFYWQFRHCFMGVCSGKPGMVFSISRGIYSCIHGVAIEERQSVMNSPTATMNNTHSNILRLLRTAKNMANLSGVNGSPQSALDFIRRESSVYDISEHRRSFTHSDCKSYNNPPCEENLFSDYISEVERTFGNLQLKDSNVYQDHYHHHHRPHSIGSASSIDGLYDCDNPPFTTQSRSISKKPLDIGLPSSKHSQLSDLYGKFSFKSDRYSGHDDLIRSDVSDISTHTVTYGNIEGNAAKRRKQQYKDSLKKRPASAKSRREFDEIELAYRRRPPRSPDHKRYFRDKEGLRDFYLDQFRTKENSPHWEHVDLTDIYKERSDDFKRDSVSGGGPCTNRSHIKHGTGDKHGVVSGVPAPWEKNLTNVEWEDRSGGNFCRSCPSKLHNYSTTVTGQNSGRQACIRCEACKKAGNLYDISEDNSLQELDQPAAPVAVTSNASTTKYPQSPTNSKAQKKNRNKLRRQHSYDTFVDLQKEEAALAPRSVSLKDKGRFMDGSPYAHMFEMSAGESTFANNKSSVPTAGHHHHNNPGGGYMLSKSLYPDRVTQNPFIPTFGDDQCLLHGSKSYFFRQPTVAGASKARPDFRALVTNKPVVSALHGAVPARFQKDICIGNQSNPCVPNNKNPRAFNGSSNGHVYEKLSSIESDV
Protocol: (§1) The following patch clamp study investigates these effects on NR1/NR2B ionotropic receptors encoded by the human GRIN1/GRIN2B genes, expressed in HEK293 cells. Compounds were evaluated for functional effects on these ion channel receptors.
(§2) The assay was carried out using an HTS electrophysiology-based approach with the Syncropatch 384pe automated patch clamp system (Nanion), while using HEK293 cells that have been transfected with human GRIN1/GRIN2B genes to express NR1/NR2B ionotropic receptors
(§3) HEK293 cells were transfected with the appropriate ion channel or receptor cDNA(s) encoding NR1 and NR2B. Stable transfectants were selected using the G418 and Zeocin-resistance genes incorporated into the expression plasmid. Selection pressure was maintained with G418 and Zeocin in the culture medium. Cells were cultured in Dulbecco's Modified Eagle Medium/Nutrient Mixture F-12 (D-MEM/F-12) supplemented with 10% fetal bovine serum, 100 U/ml penicillin G sodium, 100 ug/mL streptomycin sulfate, 100 ug/mL Zeocin, 5 ug/mL blasticidin and 500 ug/mL G418.
(§4) Before testing, cells in culture dishes were washed twice with DPBS solution. Immediately before testing, the cells were washed in HB-PS containing 10 mM CaCl2 to improve sealing.
(§5) Compounds were evaluated in 8-point concentration-response format (4 replicate wells/concentration). The compound formulations were loaded in e.g. a 384-well compound plate and placed in the Syncropatch plate well.
(§6) The agonist positive control (L-glutamate) was applied at eight (8) concentrations (0.03-100 μM; n=4, where n=the number of replicates) together with 50 μM glycine.
(§7) 2× concentration of test compounds and antagonist control was pre-applied 2 minutes before application of L-glutamate/glycine mixed with 1× concentration of test compound. Glutamate and glycine was applied to naive cells (n=4, where n=the number of replicate wells/concentration) via a multi-channel pipettor.
(§8) • a) Intracellular solution (mM): 50 mM CsCl, 90 mM CsF, 2 mM MgCl2, 5 mM EGTA, 10 mM HEPES. Adjust to pH 7.2 with CsOH. This solution was prepared in batches and stored refrigerated.
(§9) • a) Extracellular buffer was loaded into the multi holes plate wells (40 μL per well).
(§10) Activation was calculated in two ways based on the following measurements: • 1. peak current amplitudes, and • 2. current amplitude 4-5 seconds after agonist addition.
(§11) Data acquisition was performed via the […] and data was analyzed using Microsoft Excel™ (Microsoft™ Corp., Redmond, WA). Concentration-response data was filled to a Hill equation of the following form: […]
(§12) where Base is the response in the absence of test article (vehicle treatment), Max is the maximum response at high concentrations, xhalf is the EC50, or IC50, the concentration of test compound producing either half-maximal activation or inhibition, and rate is the Hill coefficient. Nonlinear least squares fits were made assuming a simple binding model. If appropriate, fits were weighted by the standard deviation. No assumptions about the fit parameters were made; the fit parameters were determined by algorithm. Raw reduced data was analyzed using Microsoft Excel Office 365 ProPlus (Microsoft™ Corp., Redmond, WA) and XLfit (Excel addon, Copyright© IDBS 2016).
as §1
HEK293 cells were transfected with the appropriate ion channel or receptor cDNA(s) encoding NR1 and NR2B. Stable transfectants were selected using the G418 and Zeocin-resistance genes incorporated into the expression plasmid. Selection pressure was maintained with G418 and Zeocin in the culture medium.

[2] = molecular target: T1, NR1/NR2B ionotropic receptors encoded by the human GRIN1/GRIN2B genes, expressed in HEK293 cells; experiment: Syncropatch automated patch clamp on NR1/NR2B receptors in HEK293 cells, antagonist mode (co-applied with 2 μM glutamate and 50 μM glycine); assay type: cell-based; conditions: for inhibits glutamate and glycine activation of NR1/NR2B receptors in vitro: PCA and SSC measurements, conclusion in words; for NR1/NR2B PCA antagonist HillSlope: co-applied with 2 μM glutamate and 50 μM glycine
Protocol: as §1, §2, §3, §4, §5, §6, §7, §8, §9, §10, §11, §12
Antagonist activity of test articles was examined after stimulation of receptors with 2 μM glutamate and 50 μM glycine in the presence of increasing concentrations of test articles. Two measurements were performed, first was a peak current amplitude and second was a steady state current between 4th and 6th seconds following agonist application.
as §1
HEK293 cells were transfected with the appropriate ion channel or receptor cDNA(s) encoding NR1 and NR2B.

[3] = test system: cortical damage in a model of permanent focal ischemia; conditions: cited from earlier work
[4] = molecular target: NR1C and NR2B receptors over NR1C+NR2A receptors (Homo sapiens, UniProt Q05586+Q13224); conditions: cited from earlier work
Sequence of NR1C and NR2B receptors over NR1C+NR2A receptors (Q13224 27-1484, other chains not shown): as above

[5] = steady state current amplitude (SSC) table

N[C@@H](CCC(=O)O)C(=O)[O-].O.[Na+] [Glutamate, L-Glutamic acid monosodium salt monohydrate]
NR1/NR2B PCA agonist HillSlope ([1]; peak current amplitude (PCA)): −0.86 | EC50 ([1]; peak current amplitude (PCA)): 3030 nM | NR1/NR2B PCA agonist EMAX ([1]; peak current amplitude (PCA)): 100.00% | NR1/NR2B PCA agonist HillSlope [1, 5]: −0.95 | EC50 ([1]; steady state current amplitude (SSC) table, read-out: NR1/NR2B PCA agonist EC50): 820 nM | NR1/NR2B PCA agonist EMAX [1, 5]: 100.00%

CC(C(O)c1ccc(O)cc1)N1CCC(Cc2ccccc2)CC1.O=C(O)c1ccccc1 (centres unmarked) [Ifenprodil benzoate]
inhibits glutamate and glycine activation of NR1/NR2B receptors in vitro [2]: comparable to ifenprodil tartrate | NR1/NR2B PCA antagonist HillSlope ([2]; peak current amplitude (PCA)): 1.39 | NR1/NR2B PCA antagonist HillSlope [2, 5]: 1.25

CC(C(O)c1ccc(O)cc1)N1CCC(Cc2ccccc2)CC1 (centres unmarked) [Ifenprodil fumarate]
NR1/NR2B PCA antagonist HillSlope ([2]; peak current amplitude (PCA), listed as fumarate): 0.79 | NR1/NR2B PCA antagonist HillSlope ([2]; steady state current amplitude (SSC) table, listed as fumarate): 0.61

CC(C(O)c1ccc(O)cc1)N1CCC(Cc2ccccc2)CC1 (centres unmarked) [Ifenprodil nicotinate]
NR1/NR2B PCA antagonist HillSlope ([2]; peak current amplitude (PCA), listed as nicotinate): 0.71 | NR1/NR2B PCA antagonist HillSlope ([2]; steady state current amplitude (SSC) table, listed as nicotinate): 0.71

C[C@@H]([C@H](O)c1ccc(O)cc1)N1CCC(Cc2ccccc2)CC1 [Ifenprodil oleate]
inhibits glutamate and glycine activation of NR1/NR2B receptors in vitro [2]: comparable to ifenprodil tartrate | NR1/NR2B PCA antagonist HillSlope ([2]; peak current amplitude (PCA)): 0.79 | NR1/NR2B PCA antagonist HillSlope [2, 5]: 0.86

CC(C(O)c1ccc(O)cc1)N1CCC(Cc2ccccc2)CC1 (centres unmarked) [Ifenprodil pamoate]
inhibits glutamate and glycine activation of NR1/NR2B receptors in vitro [2]: comparable to ifenprodil tartrate | NR1/NR2B PCA antagonist HillSlope ([2]; peak current amplitude (PCA), listed as pamoate): 1.59 | NR1/NR2B PCA antagonist HillSlope ([2]; steady state current amplitude (SSC) table, listed as pamoate): 0.77

CC12CC3CC(C)(C1)CC(N)(C3)C2 [Memantine, memantine chloride, reference compound]
NR1/NR2B PCA antagonist HillSlope ([2]; peak current amplitude (PCA)): 1.12 | NR1/NR2B PCA antagonist HillSlope [2, 5]: 1.08

Cc1ccc(CC2(O)CCN(CCOc3ccc(O)cc3)CC2)cc1 [Ro 63-1908]
neuroprotective effect against cortical damage [3]: dose-related neuroprotective effect | selectivity for the NR1C and NR2B receptors over NR1C+NR2A receptors [4]: 20,000 fold
